Laboratory results published in patent US12016831B2, “Polidocanol for use as immunomodulating agent” (priority 2018, dated 2024).

What was measured:
Assay type in all cases: in vivo, human
[1] = tested on: patients suffering from venous insufficiency from minor to severe; test: Likert survey on the "inflammatory" state in treated subjects
Method: A commercially available polidocanol solution (Atossisclerol®) was diluted to 0.05% with a physiological saline solution. A 1.4% sodium bicarbonate solution was then added in order to obtain a final concentration of 0.06%. […] To the questions on the quality of life, 10 more specific questions were added in order to assess possible variations of the “inflammatory” state (n=100 patients) after the treatment. The survey was based on the indications of: “Evaluation by Likert-type scale 4-point (0-absent, 1-moderate, 2-severe and 3-very severe)” Elleuch et al. Adv Ther. 2016 September; 33(9):1536-49. […] The survey was tailored on the Likert scale and aimed at evaluating the reduction of a number of symptoms related to chronic phlogosis, such as arthrosic or arthritis manifestations (both generic and autoimmune) with particular reference to articular mobility and pain, in subjects not suffering from full-blown diseases and apparently normal. The answers were indexed according to a scale from 0 to 3 (or from 0 to 2). Table 1 summarizes the percent individuals reporting an improvement of 50% after 4 or 15 treatments according to the invention, by self-assessment according to the Liked scale described above, for each of the following sign or symptom: […]

[2] = tested on: healthy volunteer subjects; test: Serum immunoglobulin and light chain levels after treatment
Method: The recruited patients had already been subjected to one or more polidocanol treatments, but had undergone a wash-out period of at least 4 months.
Levels of IgM, IgG, IgA and of light chains kappa/lambda, kappa and lambda were also measured.
Determinations a)-d) were carried out with Multiple Immunomagnetic Assay (Bio-Plex, Bio-Rad). Ig determinations were carried out with commercially available kits.

[3] = tested on: patients with autoimmune diseases (psoriasis, rheumatoid arthritis, systemic scleroderma); test: Cytokine and CRP levels in patients with autoimmune diseases after single administration; details: for Interleukin 1 beta level: T0 = 1; for Interleukin 13 level: T0 = 4; for Interleukin 6 level: T0 = 4.6; for Interleukin 7 level: T0 = 7; for CRP level: T0 = 32; for Interleukin 12 level / Interleukin 17 (25) level: T0 = 40; for Interleukin 9 level: T0 = 50; for TNF alpha level: T0 = 60
Method: A similar approach was used in a limited group of patients with autoimmune diseases. 10 patients (5 with psoriasis, 3 with rheumatoid arthritis, 2 with systemic scleroderma) were administered once the composition of the invention and a sample of blood was taken at T1 (8 days), T2 (30 days) and T3 (60 days). Cytokine and CRP (C-Reactive Protein, an index of inflammation) levels were measured by SCREEN CRP TEST and compared to those at time 0 (before the treatment).

[4] = tested on: individuals over 70 years old with a peripheral venous insufficiency; test: Serum CRP levels in individuals over 70 years old with osteoarticular problems; details: for CRP level: T2 (8 days)
Method: CRP levels in serum samples of individuals over 70 years old, chronically affected by osteoarticular problems, with or without pain, was also measured. CRP levels were measured within a group of 30 people, with a peripheral venous insufficiency. The subjects (23 females, 7 males) underwent sclerotherapy according to the invention. Then, CRP levels were measured at time 0 (beginning of treatment) at T1 (24 hours after treatment) and at T2 (8 days after treatment).

[5] = % of patients, n=100, after at least 4-5 treatments
[6] = after several treatments (12-14)
[7] = compared to the previous year, n=100
[8] = up to 2 months after the treatment, n=100

Polidocanol [diluted polidocanol] was tested, and the “1. Articular mobility, % individuals reporting an improvement of 50%” value ([1]; 4 treatments, 100 individuals) was 78%, the “2. Reduction of pain, % individuals reporting improvement” value ([1]; 4 treatments, 100 individuals) was 68% and the “3. Reduction of symptoms, % individuals reporting improvement” value ([1]; 4 treatments, 100 individuals) was 30%. The “4. Skin trophism, % individuals reporting improvement” value ([1]; 4 treatments, 100 individuals) was 87%, the “5. Hair, % individuals reporting improvement” value ([1]; 4 treatments, 100 individuals) was 90% and the “6. Reduction of infections, % individuals reporting improvement” value ([1]; 4 treatments, 100 individuals) was 70%. For the same substance, the “7. Feeing of wellness, % individuals reporting improvement” value ([1]; 4 treatments, 100 individuals) was 30%, the “8. Feeling of lightness (lower limbs), % individuals reporting improvement” value ([1]; 4 treatments, 100 individuals) was 70% and the “9. Improvement of "cellulitis", % individuals reporting improvement” value ([1]; 4 treatments, 100 individuals) was 54%. For the same substance, the “10. Improvement of sleep-wake rythm, % individuals reporting improvement” value ([1]; 4 treatments, 100 individuals) was 30%, the “Don't feel stopping treatment, % individuals” value ([1]; 4 treatments, 100 individuals) was 26% and the “1. Articular mobility, % individuals reporting an improvement of 50%” value ([1]; 15 treatments, 200 individuals) was 90%. The “2. Reduction of pain, % individuals reporting improvement” value ([1]; 15 treatments, 200 individuals) was 82%, the “3. Reduction of symptoms, % individuals reporting improvement” value ([1]; 15 treatments, 200 individuals) was 60% and the “4. Skin trophism, % individuals reporting improvement” value ([1]; 15 treatments, 200 individuals) was 98%. For the same substance, the “5. Hair, % individuals reporting improvement” value ([1]; 15 treatments, 200 individuals) was 95%, the “6. Reduction of infections, % individuals reporting improvement” value ([1]; 15 treatments, 200 individuals) was 85% and the “7. Feeing of wellness, % individuals reporting improvement” value ([1]; 15 treatments, 200 individuals) was 70%. For the same substance, the “8. Feeling of lightness (lower limbs), % individuals reporting improvement” value ([1]; 15 treatments, 200 individuals) was 98%, the “9. Improvement of "cellulitis", % individuals reporting improvement” value ([1]; 15 treatments, 200 individuals) was 86% and the “10. Improvement of sleep-wake rythm, % individuals reporting improvement” value ([1]; 15 treatments, 200 individuals) was 56%. For the same substance, the “Don't feel stopping treatment, % individuals” value ([1]; 15 treatments, 200 individuals) was 56%, the “Feeling of lightness in the lower limbs, 0: no variations” value ([1]; % of patients, n=100) was 2% and the “Feeling of lightness in the lower limbs, 1: lighter limbs” value ([1]; % of patients, n=100) was 70%. For the same substance, the “Feeling of lightness in the lower limbs, 2: lighter limbs and no oedema in the evenings” value ([1]; % of patients, n=100) was 28%, the “Improvement of "cellulitis", 1: lighter limbs” value ([1]; % of patients, n=100) was 54% and the “Improvement of "cellulitis", 2: lighter limbs and no oedema in the evenings” value ([1]; % of patients, n=100) was 36%. The “Improvement of skin trophism, 0: no variations” value ([1]; % of patients, n=100) was 5%, the “Improvement of the hair trophism, results positive” value ([1]; % of patients, n=100) was 90% and the “Improvement of the sleep-wake rhythm, 0: no variations” value ([1]; % of patients, n=100) was 63%. For the same substance, the “Improvement of the sleep-wake rhythm, 1: I don't know: maybe” value ([1]; % of patients, n=100) was 30%, the “Improvement of the sleep-wake rhythm, 2: I'm sleeping better and wake-up more rested” value ([1]; % of patients, n=100) was 7% and the “Improvement of the so-called "cellulitis", 0: no variations” value ([1]; % of patients, n=100) was 10%. The “Reduction of pain related to chronic inflammatory events, 0: no variations” value ([1]; % of patients, n=100) was 20%, the “Reduction of pain, 1: 20% reduction of pain-related symptoms” value ([1]; % of patients, n=100) was 12% and the “Reduction of pain, 2: 50% reduction of pain-related symptoms” value ([1]; % of patients, n=100) was 68%. For the same substance, the “Reduction of pain, 3: 70% reduction of pain-related symptoms” value ([1]; % of patients, n=100) was 0%, the “Skin trophism, 1: slight improvement of the skin elasticity and of the trophism at the touch in the lower limbs” value ([1]; % of patients, n=100) was 87% and the “Skin trophism, 2: slight improvement of the skin elasticity and of the trophism at the touch in the whole body” value ([1]; % of patients, n=100) was 60%. The “Skin trophism, 3: improvement extended to the skin of the face” value ([1]; % of patients, n=100) was 16%, the “Articular mobility, 0: no variations” value [1, 5] was 13% and the “Articular mobility, 1: 20% mobility improvement” value [1, 5] was 7%. For the same substance, the “Articular mobility, 2: 50% mobility improvement” value [1, 5] was 78%, the “Articular mobility, 3: 70% mobility improvement” value [1, 5] was 2% and the “cases with improved skin elasticity and smoother skin also in the face” value [1, 6] was 16%. For the same substance, the “cases with improved skin elasticity and smoother skin in general” value [1, 6] was 60%, the “Reduction of infective events, 0: no variations” value [1, 7] was 18% and the “Reduction of infective events, 1: maybe less infective events” value [1, 7] was 12%. The “Reduction of infective events, 2: definitely significant reduction” value [1, 7] was 70%, the “Reduction of symptoms, 1: 20% attenuation of manifestations related to skin and articular mobility” value ([1]; number of patients, n=12) was 5 N and the “Reduction of symptoms, 2: 50% attenuation of manifestations related to skin and articular mobility” value ([1]; number of patients, n=12) was 4 N. The “Reduction of symptoms, 3: 70% attenuation of manifestations related to skin and articular mobility” value ([1]; number of patients, n=12) was 1 N, the “Reduction of symptoms of chronic degenerative pathologies of immune and inflammatory genesis, 0: no variations” value ([1]; number of patients, n=12 (e.g. psoriasis, rheumatoid arthritis)) was 2 N and the “Feeling of well-being, 0: no variations” value [1, 8] was 12%. The “Feeling of well-being, 1: I feel a bit better but I don't know” value [1, 8] was 32%, the “Feeling of well-being, 2: I feel a bit better in the sense that I have a feeling of well-being” value [1, 8] was 30% and the “Feeling of well-being, 3: life without the treatment is not the same, I feel the need to undergo treatment” value [1, 8] was 26%. For the same substance, the IgA level ([2]; T30 with respect to T7 and T0) was “decrease”, the IgG level ([2]; T30 with respect to T7 and T0) was “decrease” and the IgM level ([2]; T30 with respect to T7 and T0) was “decrease”. The light chains levels ([2]; T30 with respect to T7 and T0) was “decrease”, the “immunogenic effect (IgM and IgG levels)” value ([2]; after 7 and 30 days, at the tested concentrations) was “absence of an immunogenic effect” and the “tested Ig levels” value ([2]; between T0 and T7) was “none of the tested Ig fluctuates”. For the same substance, the “Interleukin 1 beta level” value ([3]; T1 (8 days) after single administration, average, 10 patients) was 1.5, the “Interleukin 13 level” value ([3]; T1 (8 days)) was 5 and the “Interleukin 6 level” value ([3]; T1 (8 days)) was 4.8. For the same substance, the “Interleukin 7 level” value ([3]; T1 (8 days)) was 9, the CRP level ([3]; T1 (8 days)) was 30 and the “Interleukin 12 level” value ([3]; T1 (8 days)) was 42. The “Interleukin 17 (25) level” value ([3]; T1 (8 days)) was 45, the “Interleukin 9 level” value ([3]; T1 (8 days)) was 80 and the TNF alpha level ([3]; T1 (8 days)) was 52. For the same substance, the “Interleukin 1 beta level” value ([3]; T2 (30 days)) was 1.7, the “Interleukin 13 level” value ([3]; T2 (30 days)) was 5 and the “Interleukin 6 level” value ([3]; T2 (30 days)) was 3.7. The “Interleukin 7 level” value ([3]; T2 (30 days)) was 3, the CRP level ([3]; T2 (30 days)) was 24 and the “Interleukin 12 level” value ([3]; T2 (30 days)) was 36. For the same substance, the “Interleukin 17 (25) level” value ([3]; T2 (30 days)) was 32, the “Interleukin 9 level” value ([3]; T2 (30 days)) was 100 and the TNF alpha level ([3]; T2 (30 days)) was 42. For the same substance, the “Interleukin 1 beta level” value ([3]; T3 (60 days)) was 1.2, the “Interleukin 13 level” value ([3]; T3 (60 days)) was 4 and the “Interleukin 6 level” value ([3]; T3 (60 days)) was 3.2. For the same substance, the “Interleukin 7 level” value ([3]; T3 (60 days)) was 3, the CRP level ([3]; T3 (60 days)) was 16 and the “Interleukin 12 level” value ([3]; T3 (60 days)) was 32. For the same substance, the “Interleukin 17 (25) level” value ([3]; T3 (60 days)) was 28, the “Interleukin 9 level” value ([3]; T3 (60 days)) was 120 and the TNF alpha level ([3]; T3 (60 days)) was 48. For the same substance, the “CRP levels vs time 0” value ([4]; T1 (24 hours after treatment), 30 people over 70) was “did not show any variation”, the “individuals showing a notable reduction of CRP levels” value ([4]; T2 (8 days after treatment), 27 out of 30) was 90% and the CRP level ([4]; case with starting CRP level 15 mg/l) was 10 mg/L. The CRP level ([4]; case with starting CRP level 18 mg/l) was 9 mg/L and the CRP level ([4]; case with starting CRP level 27 mg/l) was 16 mg/L.
